The values that follow come from ChEMBL document CHEMBL3872220, “Amphiphilic xanthones as a potent chemical entity of anti-mycobacterial agents with membrane-targeting properties” (Eur J Med Chem, 2016).

≈ marks a conversion by molar mass, not a printed value. Calls of active or inactive are those of the source.

Broadly, the Tmax is the time from dosing to the highest level. A word on the Cmax: it is the highest concentration seen after dosing. The bioavailability is dose-corrected exposure relative to a reference, in per cent. A word on the AUC: it is concentration integrated over time. The AUC(0-inf) is the area under the concentration-time curve extrapolated to infinity. What is called Vd is a proportionality between amount in the body and measured concentration, not a real space. By MIC is commonly meant the smallest concentration in the dilution series that meets the test's criterion for growth inhibition.

For series [1], the system named is Mycolicibacterium smegmatis. The experiment in a line: Induction of membrane integrity impairment in Mycobacterium smegmatis MC2 155 at 2 times MIC by SYTO-9/propium iodide staining based Baclight assay relative to control. The class given is functional, str. MC2 155.
Series [2] can be described thus: Tmax in Sprague-Dawley rat at 2 mg/kg administered via oral gavage measured by LC-MS/MS method. The class given is ADME, organism-based. The conditions noted are these: in vivo.
A short description of series [3]: Terminal half life in Sprague-Dawley rat at 2 mg/kg, iv administered as single bolus dose measured by LC-MS/MS method. Type of series: ADME, organism-based. The conditions noted are these: in vivo, read-out: beta t1/2 (converted).
The nature of series [4]: Selectivity index, ratio of CC50 for human corneal fibroblasts assessed as reduction in ATP level to MIC90 for Mycobacterium smegmatis MC2 155.
Series [5] is described as follows: Cmax in Sprague-Dawley rat at 2 mg/kg, iv administered as single bolus dose measured by LC-MS/MS method. The class given is ADME, organism-based. The arrangement: dose 2 mg/kg, route intravenous. The conditions noted are these: in vivo.
Series [6] relates to Mycolicibacterium smegmatis. The experiment in a line: Induction of impaired membrane integrity in Mycobacterium smegmatis MC2 155 assessed as reduction in membrane integrity at 0.5 times MIC by SYTO-9/propium iodide stain based Baclight assay relative to control. The class given is functional, str. MC2 155. The arrangement: scale not given: the % may be the effect or the level left.

For series [7], the system named is Mycolicibacterium smegmatis. The experiment in a line: Bactericidal activity against Mycobacterium smegmatis MC2 155 assessed as log reduction in bacterial colonies at 3.2 uM measured after 6 hrs by time-kill assay. Type of series: functional, str. MC2 155.
Series [8] deals with Mycolicibacterium smegmatis. The experiment in a line: Induction of membrane integrity impairment in Mycobacterium smegmatis MC2 155 at 4 times MIC measured after 24 hrs by SYTO-9/propium iodide staining based Baclight assay relative to control. The class given is functional, str. MC2 155.
Series [9] in a line: Clearance in Sprague-Dawley rat at 2 mg/kg, iv administered as single bolus dose measured by LC-MS/MS method. The class given is ADME, organism-based. The conditions noted are these: in vivo.
Series [10] has as its system Mycolicibacterium smegmatis. The experiment in a line: Bactericidal activity against Mycobacterium smegmatis MC2 155 measured after 2 days by time-kill assay. Type of series: functional. The conditions noted are these: str. MC2 155.
Series [11] deals with Mycolicibacterium smegmatis. In words: Induction of impaired membrane integrity in Mycobacterium smegmatis MC2 155 assessed as reduction in membrane integrity at MIC by SYTO-9/propium iodide stain based Baclight assay relative to control. Type of series: functional, str. MC2 155. The arrangement: scale not given: the % may be the effect or the level left.
Series [12] can be described thus: Oral bioavailability in Sprague-Dawley rat at 2 mg/kg measured by LC-MS/MS method. Type of series: ADME, organism-based. To be noted: in vivo.
Series [13] in a line: AUC (0 to infinity) in Sprague-Dawley rat at 2 mg/kg, iv administered as single bolus dose measured by LC-MS/MS method. Type of series: ADME, organism-based. The arrangement: dose 2 mg/kg, route intravenous, time infinity. To be noted: in vivo.
Series [14] is described as follows: AUC (0 to infinity) in Sprague-Dawley rat at 2 mg/kg, administered via oral gavage measured by LC-MS/MS method. The class given is ADME, organism-based. The arrangement: dose 2 mg/kg, time infinity, route oral. To be noted: in vivo.
For series [15], the system named is Mycolicibacterium smegmatis. The experiment in a line: Bactericidal activity against Mycobacterium smegmatis MC2 155 assessed as log reduction in bacterial colonies at 2 times MIC measured after 3 hrs by time-kill assay. Type of series: functional, str. MC2 155.
Series [16] can be described thus: Terminal half life in Sprague-Dawley rat at 2 mg/kg administered via oral gavage measured by LC-MS/MS method. Type of series: ADME, organism-based. To be noted: in vivo, read-out: beta t1/2 (converted).
Series [17] has as its system Mycolicibacterium smegmatis. The experiment in a line: Bactericidal activity against Mycobacterium smegmatis MC2 155 assessed as log reduction in bacterial colonies at 2 times MIC measured after 6 hrs by time-kill assay. The class given is functional, str. MC2 155.
A short description of series [18]: Volume of distribution in Sprague-Dawley rat at 2 mg/kg, iv administered as single bolus dose measured by LC-MS/MS method. The class given is ADME, organism-based. The conditions noted are these: in vivo.
Series [19] deals with Lipid bilayer. The experiment in a line: Induction of membrane damage in CI/DOPG/DOPI large unilamellar vesicles assessed as calcein leakage at lower compound to lipid ratio by fluorescence based […] assay relative to control.
Series [20] is described as follows: Cmax in Sprague-Dawley rat at 2 mg/kg administered via oral gavage measured by LC-MS/MS method. Type of series: ADME, organism-based. The arrangement: dose 2 mg/kg, route oral. The conditions noted are these: in vivo.
The subject of series [21] is Mycolicibacterium smegmatis. In words: Bactericidal activity against Mycobacterium smegmatis MC2 155 assessed as log reduction in bacterial colonies at 4 times MIC measured after 3 hrs by time-kill assay. Type of series: functional, str. MC2 155.
Series [22] can be described thus: Selectivity index, ratio of CC50 for human corneal fibroblasts assessed as reduction in ATP level to MIC90 for Mycobacterium bovis BCG ATCC 35734.
In series [23] the test system is Mycobacterium tuberculosis. In words: Antimycobacterial activity against Mycobacterium tuberculosis H37Rv ATCC 27294 assessed as reduction in 2 log10 bacterial colonies measured after 14 to 21 days by agar dilution method. The class given is functional.
Series [24] deals with Mycobacterium tuberculosis. The experiment in a line: Antimycobacterial activity against Mycobacterium tuberculosis clinical isolate 01;057 assessed as reduction in 2 log10 bacterial colonies measured after 14 to 21 days by agar dilution method. Type of series: functional.
Series [25] concerns Lipid bilayer. In words: Induction of membrane damage in CI/DOPG/DOPI large unilamellar vesicles assessed as calcein leakage at 1:8 compound to lipid ratio by fluorescence based […] assay relative to control.
Series [26] deals with Lipid bilayer. In words: Induction of membrane damage in CI/DOPG/DOPI large unilamellar vesicles assessed as calcein leakage at 1:4 compound to lipid ratio by fluorescence based […] assay relative to control.
The test system of series [27] is Mycolicibacterium smegmatis. In words: Induction of membrane disruption in Mycobacterium smegmatis MC2 155 assessed as increased cytoplasmic membrane permeability at 60 uM up to 3 hrs by Sytox green uptake assay. The conditions noted are these: str. MC2 155. Type of series: functional.
Series [28] deals with Mycolicibacterium smegmatis. The experiment in a line: Bactericidal activity against Mycobacterium smegmatis MC2 155 assessed as log reduction in bacterial colonies at 4 times MIC measured after 24 hrs by time-kill assay. The class given is functional, str. MC2 155.

As to `CCCN(CCC)CCCCOc1cc2oc3cc(OCCCCN(CCC)CCC)c(OC)c(CC=C(C)C)c3c(=O)c2c(O)c1CC=C(C)C`, the Activity in series [1] is 78.8%; in series [6], below 15%; in series [7], 1.6; in series [8], 76.9%; in series [10] it was “Dose-dependent effect”; in [11], 28%. Also, the Activity in [15] was 2.85; in series [17], 4.15; with Lipid bilayer [19], below 10%; in series [21], 4.15. For the same molecule, in series [2], the Tmax was found to be 4 h. The half-life in series [3] is 9.93 h; in series [16] it was 4.79 h. Also, the “Selectivity Index” value in series [4] and in series [22] was 15 - 40 throughout. In addition, the results for the highest concentration (Cmax) in series [5] and in series [20] were 1500 ng/mL and 320 ng/mL, respectively. Further, in [9], the CL was 24.7 mL/min/kg. The bioavailability in series [12] is 14 to 15%. In series [13], this molecule gave an AUC of 22780 ng·h/mL. The molecule further yielded an AUC(0-inf) in series [14] of 3300 ng·h/mL. This molecule had a Vd in [18] of 1.28 L/kg.
Take `CCN(CC)CCCCOc1cc2oc3cc(OCCCCN(CC)CC)c(OC)c(CC=C(C)C)c3c(=O)c2c(O)c1CC=C(C)C`: the Activity was below 15% in series [6], 62.5% in [8], 14.6% in the series on Lipid bilayer [25] and 23.4% with Lipid bilayer [26]. In addition, the minimum inhibitory concentration (MIC) was found to be 2 µg/mL (≈ 3.01 µM) in series [23] and 4 µg/mL (≈ 6.02 µM) in [24]. Besides, the result in series [27] was Active.
Regarding `COc1c(OCCCCN2CCOCC2)cc2oc3cc(OCCCCN4CCOCC4)c(CC=C(C)C)c(O)c3c(=O)c2c1CC=C(C)C`, the “Selectivity Index” value in series [4] and in [22] was 15 - 40 throughout. The Activity in series [28] came to 2.4. Moreover, the minimum inhibitory concentration (MIC) in [23] and in series [24] was 4 µg/mL (≈ 5.77 µM) each time.
